Columns and labels:
[1] = molecular target: T1, NLRP3 (Homo sapiens, UniProt Q96P20); test: Human PBMC NLRP3 Assay; format: cell-based
Protocol: Human PBMC NLRP3 Assay: Cryopreserved PBMCs were rapidly thawed in a 37° C. water bath for 2 min. […] A count was undertaken using a hemocytometer and adjusted to 2.5×10^5 cells/mL. V-shaped 96-well plates were seeded with 200 μL of PMBCs (5×10^4) per well and subsequently incubated overnight at 37° C. with 5% CO2. Assay Media was then prepared containing 100 ng/ml of LPS. PBMCs were then centrifuged at 1,200 RPM for 5 min, serum containing media was aspirated, and 150 μL/well of Assay Media+LPS was immediately added. Assay Media without LPS was added in the untreated control wells. Cells were then primed with LPS for 4 h at 37° C. with 5% CO2. A concentration response curve (CRC) was prepared of 1000× test compound in 100% DMSO. The CRC was then diluted 1:50 in Assay Media and then further diluted by 1:5× in Assay Media resulting in a final 4×CRC in 0.4% DMSO/Assay Media. 50 μL/well of 4× test compound CRC or vehicle (0.4% DMSO/Assay Media) was then transferred into each well and subsequently incubated for 30 min at 37° C. with 5% CO2. Cells were stimulated by adding 4 μL of 250 mM ATP, using a 250 mM stock prepared in 1 M Hepes without further dilution (for a final concentration of 5 mM), for 1 h at 37° C. with 5% CO2. Plates were then centrifuged at 1200 RPM for 5 min; and 50 μl of the media was transferred to a clean 96-well storage plate for cytokine measurements using the mesoscale platform, and stored at −80° C. until analyzed.

[2] = molecular target: T1, NLRP3; test: Human whole blood (hWB) NLRP3 Assay; format: cell-based; parameters: Blood is collected from healthy volunteers in heparin lithium tubes; from tissue; host or cells: pooled heparinised whole blood from healthy human volunteers, LPS-primed, ATP-stimulated
Protocol: Blood is collected from healthy volunteers in heparin lithium tubes. • 2. Plate 90 μL of pooled blood per well in 96-well U-bottom plates. • 3. Add 5 uL of 20×LPS (20 ug/mL, final concentration of 1 ug/mL) and mix by gentle pipetting. • 4. Incubate in TC incubator for 4.5 hours. • 5. Add 5 uL of 20× compound or vehicle per well and mix by gentle pipetting. • a. Compounds are diluted 1/50 in HBSS to prepare a 20× dilution curve in 2% DMSO • 6. Incubate for 30 minutes in TC incubator with shaking (450 rpm). • 7. […] Incubate in TC incubator for 30 minutes with shaking (450 rpm). • 9. Centrifuge plate for 10 minutes at 800×g and carefully remove ˜70 μL of plasma. Freeze plasma if required. • 10. Analyze human IL-1b with IL-1b MSD assay (K151TUK) • a.

[3] = Table 5: fused bicyclic analogs vs monocyclic pyridazines
[4] = human PBMCs primed with LPS 4 h, compound 30 min, ATP 5 mM 1 h, cytokine measurement on mesoscale platform, potency code
[5] = LPS 1 ug/mL 4.5 h, compound 30 min, ATP 5 mM 30 min, IL-1b MSD assay, potency code
[6] = Table 6: regioisomer comparison

T1 sequence (Q96P20 whole entry): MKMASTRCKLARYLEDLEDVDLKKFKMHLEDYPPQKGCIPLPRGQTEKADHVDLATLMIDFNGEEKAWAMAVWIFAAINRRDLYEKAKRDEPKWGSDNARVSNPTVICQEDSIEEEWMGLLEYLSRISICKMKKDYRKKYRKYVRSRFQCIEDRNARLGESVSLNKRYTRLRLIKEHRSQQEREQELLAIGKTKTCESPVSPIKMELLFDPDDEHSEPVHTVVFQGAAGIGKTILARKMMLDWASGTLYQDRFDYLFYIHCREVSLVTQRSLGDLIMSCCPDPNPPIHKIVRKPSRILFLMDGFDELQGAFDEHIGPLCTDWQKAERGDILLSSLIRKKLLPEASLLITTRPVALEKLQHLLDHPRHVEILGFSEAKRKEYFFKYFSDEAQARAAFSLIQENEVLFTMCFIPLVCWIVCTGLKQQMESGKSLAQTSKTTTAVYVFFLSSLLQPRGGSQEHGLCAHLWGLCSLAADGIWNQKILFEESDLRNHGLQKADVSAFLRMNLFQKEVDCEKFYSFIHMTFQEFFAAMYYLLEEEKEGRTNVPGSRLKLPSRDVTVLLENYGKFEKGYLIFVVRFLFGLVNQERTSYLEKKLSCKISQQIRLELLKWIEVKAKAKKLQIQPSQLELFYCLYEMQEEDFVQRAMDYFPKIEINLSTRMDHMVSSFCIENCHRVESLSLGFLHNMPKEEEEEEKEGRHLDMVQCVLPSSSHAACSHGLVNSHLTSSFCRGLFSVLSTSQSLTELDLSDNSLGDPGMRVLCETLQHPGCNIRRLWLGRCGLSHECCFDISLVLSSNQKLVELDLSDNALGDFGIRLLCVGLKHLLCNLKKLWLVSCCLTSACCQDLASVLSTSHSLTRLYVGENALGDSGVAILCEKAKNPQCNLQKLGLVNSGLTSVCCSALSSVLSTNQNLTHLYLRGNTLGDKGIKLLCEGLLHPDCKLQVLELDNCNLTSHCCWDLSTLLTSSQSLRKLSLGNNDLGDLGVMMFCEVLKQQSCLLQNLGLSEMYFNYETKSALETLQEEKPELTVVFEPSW

Brc1ccc(-c2ccc(NCC3CCCO3)nn2)cc1 (stereo not shown)
IC50 [1, 3]: 3800 nM

Oc1cc(Cl)ccc1-c1nnc(NC[C@H]2CCC(F)(F)C2)c2cnccc12 (single isomer, unassigned) [Compound 91]
IC50 [1, 4]: < 300 nM

CN1CCC[C@H]1CNc1nnc(-c2ccc(Cl)cc2O)c2ccncc12 [Compound 93, (S)-5-chloro-2-(4-(((1-methylpyrrolidin-2-yl)methyl)amino)pyrido[3,4-d]pyridazin-1-yl)phenol]
IC50 [1, 4]: < 300 nM

CC(C)(O)CNc1nnc(-c2ccc(Cl)cc2O)c2ccncc12 [Compound 82, 5-chloro-2-(4-((2-hydroxy-2-methylpropyl)amino)pyrido[3,4-d]pyridazin-1-yl)phenol]
IC50 [1, 4]: < 300 nM

CC1(CNc2nnc(-c3ccc(Cl)cc3)c3ccccc23)CCCO1 (stereo not shown) [Compound 8, 4-(4-chlorophenyl)-N-[(2-methyltetrahydrofuran-2-yl)methyl]phthalazin-1-amine]
IC50 [2, 5]: < 300 nM

Clc1ccc(-c2ccc(NCC3CCCO3)nn2)cc1 (stereo not shown) [drawing 171]
IC50 [1, 6]: 64000 nM | IC50 [2, 6]: > 50000 nM

CC1COC(CNc2nnc(-c3ccc(Cl)cc3)c3ccccc23)C1 (stereo not shown) [Compound 22, 4-(4-chlorophenyl)-N-[(4-methyltetrahydrofuran-2-yl)methyl]phthalazin-1-amine]
IC50 [2, 5]: 500 to 1000 nM

Clc1ccc(-c2nnc(NC[C@H]3CCCO3)c3cc(Cl)ccc23)cc1 (racemic) [Compound 21, 7-chloro-4-(4-chlorophenyl)-N-[[rac-(2R)-tetrahydrofuran-2-yl]methyl]phthalazin-1-amine]
IC50 [1, 4]: 300 to 500 nM | IC50 [2, 5]: < 300 nM

CC1(CNc2ccc(-c3ccc(Br)cc3)nn2)CCCO1 (stereo not shown) [Compound 6, 6-(4-bromophenyl)-N-[(2-methyltetrahydrofuran-2-yl)methyl]pyridazin-3-amine]
IC50 [1, 4]: > 1000 nM | IC50 [2, 5]: < 300 nM

Clc1ccc(-c2nnc(NCC3CCCOC3)c3ccccc23)cc1 (stereo not shown) [Compound 9, 4-(4-chlorophenyl)-N-(tetrahydropyran-3-ylmethyl)phthalazin-1-amine]
IC50 [2, 5]: 500 to 1000 nM

Clc1ccc(-c2ccc(NCC3CCCO3)nn2)cc1 (stereo not shown) [drawing 169]
IC50 [1, 3]: 64000 nM

Clc1ccc(-c2nnc(NCC3CCCCO3)c3ccccc23)cc1 (stereo not shown) [Compound 17, 4-(4-chlorophenyl)-N-(tetrahydropyran-2-ylmethyl)phthalazin-1-amine]
IC50 [2, 5]: > 1000 nM

Clc1ccc(-c2nnc(OC[C@H]3CCCO3)c3cnccc23)cc1 [Compound 3, (R)-1-(4-chlorophenyl)-4-((tetrahydrofuran-2-yl)methoxy)pyrido[3,4-d]pyridazine]
IC50 [2, 5]: 300 to 500 nM

Clc1ccc(-c2nnc(NCC3CCCO3)c3ccncc23)cc1 (stereo not shown) [Compound 15, 4-(4-chlorophenyl)-N-(tetrahydrofuran-2-ylmethyl)pyrido[3,4-d]pyridazin-1-amine]
IC50 [1, 4]: > 1000 nM | IC50 [2, 5]: 500 to 1000 nM

Cc1cc(Cl)ccc1-c1nnc(NCC2CCCO2)c2ccccc12 (stereo not shown) [Compound 20, 4-(4-chloro-2-methyl-phenyl)-N-(tetrahydrofuran-2-ylmethyl)phthalazin-1-amine]
IC50 [1, 4]: 300 to 500 nM | IC50 [2, 5]: 300 to 500 nM

FC(F)(F)c1ccc(-c2nnc(NCC3CCCO3)c3ccccc23)cc1 (stereo not shown) [Compound 11, N-(tetrahydrofuran-2-ylmethyl)-4-[4-(trifluoromethyl)phenyl]phthalazin-1-amine]
IC50 [1, 4]: < 300 nM | IC50 [2, 5]: < 300 nM

Clc1ccc(-c2nnc(NCC3CCOCC3)c3ccccc23)cc1 [Compound 10, 4-(4-chlorophenyl)-N-(tetrahydropyran-4-ylmethyl)phthalazin-1-amine]
IC50 [2, 5]: > 1000 nM

Clc1ccc(-c2nnc(NC[C@@H]3CCCO3)c3ccncc23)cc1 [Compound 2, (S)-4-(4-chlorophenyl)-N-((tetrahydrofuran-2-yl)methyl)pyrido[3,4-d]pyridazin-1-amine]
IC50 [2, 5]: < 300 nM

Brc1ccc(-c2nnc(NCC3CCCO3)c3ccccc23)cc1 (stereo not shown) [drawing 168]
IC50 [1, 3]: 190 nM

Brc1ccc(-c2nnc(NCC3CCCO3)c3ccccc23)cc1 (stereo not shown) [Compound 7, 4-(4-bromophenyl)-N-(tetrahydrofuran-2-ylmethyl)phthalazin-1-amine]
IC50 [1, 4]: < 300 nM | IC50 [2, 5]: > 1000 nM

Clc1ccc(-c2nnc(NCC3COCCO3)c3ccccc23)cc1 (single isomer, unassigned) [Compound 24]
IC50 [2, 5]: < 300 nM

COCCNc1nnc(-c2ccc(Cl)cc2)c2ccccc12 [Compound 18, 4-(4-chlorophenyl)-N-(2-methoxyethyl)phthalazin-1-amine]
IC50 [2, 5]: < 300 nM

COC(C)(C)CNc1nnc(-c2ccc(Cl)cc2O)c2ccncc12 [Compound 83, 5-chloro-2-(4-((2-methoxy-2-methylpropyl)amino)pyrido[3,4-d]pyridazin-1-yl)phenol]
IC50 [1, 4]: < 300 nM

OCCNc1nnc(-c2ccc(Cl)cc2)c2ccccc12 [Compound 16, 2-[[4-(4-chlorophenyl)phthalazin-1-yl]amino]ethanol]
IC50 [2, 5]: 500 to 1000 nM

Clc1ccc(-c2nnc(NCC3CCCO3)c3ccncc23)cc1 (single isomer, unassigned)
IC50 [1, 6]: 2900 nM

Oc1cc(Cl)ccc1-c1nnc(N[C@H]2CCOC2)c2cnccc12 [Compound 89, (S)-5-chloro-2-(4-((tetrahydrofuran-3-yl)amino)pyrido[3,4-d]pyridazin-1-yl)phenol]
IC50 [1, 4]: < 300 nM

Clc1ccc(-c2nnc(NCC3COCCO3)c3ccccc23)cc1 (single isomer, unassigned) [Compound 23]
IC50 [1, 4]: 500 to 1000 nM | IC50 [2, 5]: > 1000 nM

CN(CC1CCCO1)c1nnc(-c2ccc(Cl)cc2)c2ccccc12 (stereo not shown) [Compound 19, 4-(4-chlorophenyl)-N-methyl-N-(tetrahydrofuran-2-ylmethyl)phthalazin-1-amine]
IC50 [2, 5]: 300 to 500 nM

Clc1ccc(-c2nnc(OC[C@H]3CCCO3)c3ccncc23)cc1 [Compound 4, (R)-4-(4-chlorophenyl)-1-((tetrahydrofuran-2-yl)methoxy)pyrido[3,4-d]pyridazine]
IC50 [2, 5]: 300 to 500 nM

— US12281112B2, “Compounds for inhibiting NLRP3 and uses thereof” (Ventus Therapeutics U.S., Inc., priority 2021, dated 2025)
